{"source": "paper PMC4415586", "about": "(European journal of medicinal chemistry, 2014)", "key": {"[1]": {"biological_target": "T1, TNKS-2 (Homo sapiens, UniProt Q9H2K2)", "T1 sequence (Q9H2K2 1-1166)": "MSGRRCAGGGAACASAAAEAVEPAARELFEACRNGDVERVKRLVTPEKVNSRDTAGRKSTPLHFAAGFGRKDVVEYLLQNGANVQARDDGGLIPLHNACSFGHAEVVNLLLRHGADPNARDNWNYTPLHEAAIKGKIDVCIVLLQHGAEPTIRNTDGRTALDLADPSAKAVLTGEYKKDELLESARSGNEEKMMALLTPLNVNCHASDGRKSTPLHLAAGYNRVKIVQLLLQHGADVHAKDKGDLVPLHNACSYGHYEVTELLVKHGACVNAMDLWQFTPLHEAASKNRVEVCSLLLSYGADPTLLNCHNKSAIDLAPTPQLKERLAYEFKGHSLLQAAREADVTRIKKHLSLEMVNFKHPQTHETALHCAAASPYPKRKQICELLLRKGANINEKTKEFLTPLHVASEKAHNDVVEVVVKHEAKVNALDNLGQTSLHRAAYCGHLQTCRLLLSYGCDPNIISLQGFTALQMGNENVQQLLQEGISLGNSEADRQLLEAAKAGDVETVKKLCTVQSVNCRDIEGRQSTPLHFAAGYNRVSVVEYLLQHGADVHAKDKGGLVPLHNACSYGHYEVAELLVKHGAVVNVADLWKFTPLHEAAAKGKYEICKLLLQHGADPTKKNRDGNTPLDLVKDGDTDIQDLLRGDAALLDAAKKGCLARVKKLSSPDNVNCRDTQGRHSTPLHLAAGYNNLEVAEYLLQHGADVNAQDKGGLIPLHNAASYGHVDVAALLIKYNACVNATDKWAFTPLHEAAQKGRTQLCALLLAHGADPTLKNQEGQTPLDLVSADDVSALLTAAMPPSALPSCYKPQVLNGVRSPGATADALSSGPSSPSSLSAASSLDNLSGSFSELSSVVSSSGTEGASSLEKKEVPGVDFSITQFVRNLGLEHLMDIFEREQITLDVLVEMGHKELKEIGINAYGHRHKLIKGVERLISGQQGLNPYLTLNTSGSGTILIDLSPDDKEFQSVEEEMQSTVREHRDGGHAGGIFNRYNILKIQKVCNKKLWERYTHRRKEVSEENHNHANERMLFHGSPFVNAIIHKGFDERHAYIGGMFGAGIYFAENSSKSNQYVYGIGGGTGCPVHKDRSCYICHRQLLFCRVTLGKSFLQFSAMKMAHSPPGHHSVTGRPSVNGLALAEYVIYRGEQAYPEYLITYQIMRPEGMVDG", "experiment": "TNKS-2 autoribosylation assay", "details": "for inhibition at 1 µM: read-out: % of inhibition TNKS-2, 1 μM, duplicate"}, "[2]": {"biological_target": "T2, TNKS-1 (Homo sapiens, UniProt O95271)", "T2 sequence (O95271 1-1327)": "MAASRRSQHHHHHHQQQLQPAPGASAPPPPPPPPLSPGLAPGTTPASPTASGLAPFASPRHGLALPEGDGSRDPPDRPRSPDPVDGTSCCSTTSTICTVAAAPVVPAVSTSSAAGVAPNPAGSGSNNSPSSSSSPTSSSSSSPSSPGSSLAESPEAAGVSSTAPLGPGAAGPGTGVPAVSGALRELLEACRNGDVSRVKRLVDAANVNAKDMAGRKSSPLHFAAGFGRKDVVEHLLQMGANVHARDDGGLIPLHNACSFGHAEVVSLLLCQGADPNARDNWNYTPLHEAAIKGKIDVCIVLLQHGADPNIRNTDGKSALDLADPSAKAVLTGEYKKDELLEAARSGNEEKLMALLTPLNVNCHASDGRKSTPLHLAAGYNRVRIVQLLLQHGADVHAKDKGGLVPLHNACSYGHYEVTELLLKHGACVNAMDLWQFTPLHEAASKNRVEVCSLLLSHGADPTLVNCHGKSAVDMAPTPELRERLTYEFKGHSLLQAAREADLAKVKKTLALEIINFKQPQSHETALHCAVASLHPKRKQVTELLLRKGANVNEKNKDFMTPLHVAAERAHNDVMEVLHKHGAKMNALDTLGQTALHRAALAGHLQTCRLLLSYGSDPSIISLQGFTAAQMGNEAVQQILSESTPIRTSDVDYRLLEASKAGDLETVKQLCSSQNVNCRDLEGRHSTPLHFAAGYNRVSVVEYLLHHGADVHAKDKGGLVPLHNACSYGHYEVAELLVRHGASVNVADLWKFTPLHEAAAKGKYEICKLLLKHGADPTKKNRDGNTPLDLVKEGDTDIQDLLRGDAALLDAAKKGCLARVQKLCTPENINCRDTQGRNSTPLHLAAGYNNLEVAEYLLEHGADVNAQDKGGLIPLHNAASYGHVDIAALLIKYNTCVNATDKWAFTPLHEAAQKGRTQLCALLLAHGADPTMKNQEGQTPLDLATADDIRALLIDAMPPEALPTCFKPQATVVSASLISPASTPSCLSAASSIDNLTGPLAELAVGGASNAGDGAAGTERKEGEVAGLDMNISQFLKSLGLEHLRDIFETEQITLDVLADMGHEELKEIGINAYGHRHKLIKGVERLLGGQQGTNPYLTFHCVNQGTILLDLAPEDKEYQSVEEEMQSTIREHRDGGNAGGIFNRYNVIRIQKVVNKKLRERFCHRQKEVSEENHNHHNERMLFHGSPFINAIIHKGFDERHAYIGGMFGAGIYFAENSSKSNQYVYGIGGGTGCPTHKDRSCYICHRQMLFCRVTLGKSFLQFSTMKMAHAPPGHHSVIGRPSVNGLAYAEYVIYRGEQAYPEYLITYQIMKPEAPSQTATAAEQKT", "experiment": "TNKS-1 autoribosylation assay", "details": "for inhibition at 1 µM: read-out: % of inhibition TNKS-1, 1 μM, duplicate; for % of inhibition TNKS-1: 1 μM, duplicate"}, "[3]": {"test_system": "RKO colorectal cancer cell line", "experiment": "Cell growth inhibition, Wnt-negative RKO", "assay_type": "cell-based", "details": "negative control cell line"}, "[4]": {"test_system": "PARP enzymes (1–3, 6–8, 10–12, 14)", "experiment": "PARP selectivity panel", "details": "10 μM, duplicate"}, "[5]": {"test_system": "DLD-1 cancer cells", "experiment": "Colony growth assay, DLD-1", "assay_type": "cell-based", "details": "1, 5 and 10 μM, treated daily, 10 days"}, "[6]": {"test_system": "TCF transcriptional activity (Wnt) in DLD-1 colorectal cancer cells", "experiment": "TCF-luciferase reporter", "assay_type": "cell-based", "details": "DLD-1 cells, 1 μM, 24 h"}, "[7]": {"biological_target": "PARP-14 (Homo sapiens, UniProt Q460N5)", "sequence (Q460N5 whole entry)": "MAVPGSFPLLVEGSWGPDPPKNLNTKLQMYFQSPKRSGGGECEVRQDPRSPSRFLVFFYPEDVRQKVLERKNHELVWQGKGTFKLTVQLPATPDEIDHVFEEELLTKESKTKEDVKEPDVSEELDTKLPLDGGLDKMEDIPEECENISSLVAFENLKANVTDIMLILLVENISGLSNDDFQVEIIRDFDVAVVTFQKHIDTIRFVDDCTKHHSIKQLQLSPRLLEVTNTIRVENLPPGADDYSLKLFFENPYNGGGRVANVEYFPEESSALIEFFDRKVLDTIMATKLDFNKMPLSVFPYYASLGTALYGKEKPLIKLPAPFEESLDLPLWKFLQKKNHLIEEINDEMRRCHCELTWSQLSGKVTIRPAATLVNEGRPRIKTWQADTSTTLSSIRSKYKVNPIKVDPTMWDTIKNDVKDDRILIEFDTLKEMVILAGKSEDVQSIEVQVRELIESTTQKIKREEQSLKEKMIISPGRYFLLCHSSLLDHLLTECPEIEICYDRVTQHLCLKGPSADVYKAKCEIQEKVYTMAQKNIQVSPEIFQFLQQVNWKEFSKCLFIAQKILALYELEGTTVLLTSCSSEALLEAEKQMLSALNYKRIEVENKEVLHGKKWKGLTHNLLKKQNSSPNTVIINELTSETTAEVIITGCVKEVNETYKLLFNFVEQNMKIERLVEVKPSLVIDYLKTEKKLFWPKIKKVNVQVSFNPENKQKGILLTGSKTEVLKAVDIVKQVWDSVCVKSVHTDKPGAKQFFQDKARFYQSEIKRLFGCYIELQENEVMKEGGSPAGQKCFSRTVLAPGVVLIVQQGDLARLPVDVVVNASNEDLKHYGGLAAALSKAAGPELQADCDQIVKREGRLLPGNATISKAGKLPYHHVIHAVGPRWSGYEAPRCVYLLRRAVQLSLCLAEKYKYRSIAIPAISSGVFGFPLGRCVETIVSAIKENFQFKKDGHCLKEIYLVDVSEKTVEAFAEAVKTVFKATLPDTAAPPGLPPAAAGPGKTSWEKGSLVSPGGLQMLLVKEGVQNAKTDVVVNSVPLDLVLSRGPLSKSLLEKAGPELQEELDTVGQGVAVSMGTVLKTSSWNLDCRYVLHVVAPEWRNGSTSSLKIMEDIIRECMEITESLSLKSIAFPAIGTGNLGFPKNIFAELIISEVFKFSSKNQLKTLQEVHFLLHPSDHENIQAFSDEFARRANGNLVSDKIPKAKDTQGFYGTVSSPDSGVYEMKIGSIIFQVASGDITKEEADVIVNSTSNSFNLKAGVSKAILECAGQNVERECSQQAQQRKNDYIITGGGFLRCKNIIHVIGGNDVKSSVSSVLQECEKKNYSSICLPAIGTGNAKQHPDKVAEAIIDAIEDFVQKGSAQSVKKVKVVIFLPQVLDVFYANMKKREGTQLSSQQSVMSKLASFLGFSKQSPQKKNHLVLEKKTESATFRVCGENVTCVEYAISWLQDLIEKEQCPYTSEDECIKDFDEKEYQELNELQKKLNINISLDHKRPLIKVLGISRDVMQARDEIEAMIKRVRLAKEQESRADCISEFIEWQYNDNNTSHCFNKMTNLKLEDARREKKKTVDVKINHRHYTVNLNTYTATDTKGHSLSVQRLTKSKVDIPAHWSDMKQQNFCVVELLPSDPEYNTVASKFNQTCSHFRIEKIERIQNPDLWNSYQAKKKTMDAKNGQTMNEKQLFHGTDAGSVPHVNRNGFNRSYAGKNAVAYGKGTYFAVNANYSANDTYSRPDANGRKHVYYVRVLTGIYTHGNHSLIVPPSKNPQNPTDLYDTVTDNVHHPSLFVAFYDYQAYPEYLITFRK", "experiment": "PARP-14 enzymatic assay", "details": "100 μM"}, "[8]": {"biological_target": "PARP-2 (Homo sapiens, UniProt Q9UGN5)", "sequence (Q9UGN5 whole entry)": "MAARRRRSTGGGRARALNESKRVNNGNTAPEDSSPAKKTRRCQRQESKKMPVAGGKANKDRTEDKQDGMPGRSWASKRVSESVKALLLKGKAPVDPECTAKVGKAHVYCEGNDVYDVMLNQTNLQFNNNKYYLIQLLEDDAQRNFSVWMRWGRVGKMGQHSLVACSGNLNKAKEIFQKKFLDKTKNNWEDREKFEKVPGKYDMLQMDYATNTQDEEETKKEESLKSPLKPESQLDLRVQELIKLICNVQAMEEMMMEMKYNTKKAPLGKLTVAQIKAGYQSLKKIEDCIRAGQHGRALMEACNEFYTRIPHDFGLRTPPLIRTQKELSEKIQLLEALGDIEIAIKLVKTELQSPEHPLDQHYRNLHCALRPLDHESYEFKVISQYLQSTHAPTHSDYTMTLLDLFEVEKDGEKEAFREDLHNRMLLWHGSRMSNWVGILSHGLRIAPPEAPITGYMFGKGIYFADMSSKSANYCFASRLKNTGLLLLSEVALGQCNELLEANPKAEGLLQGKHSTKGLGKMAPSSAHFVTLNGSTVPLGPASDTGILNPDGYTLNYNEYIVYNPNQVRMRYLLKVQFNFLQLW", "details": "20 nM, reference compound"}}}
{"compound": "COc1ccc2sc3c(O)nc4ccccc4c3c2c1", "note": "[compound 6, 10-Methoxy[l]benzothieno[2,3-c]quinolin-6(5H)-one]", "values": [{"measurement": "inhibition at 1 µM", "setting": "[1]", "value": "> 70", "unit": "%"}, {"measurement": "inhibition at 1 µM", "setting": "[2]", "value": "> 70", "unit": "%"}]}
{"compound": "COc1ccc2c(c1)nc(O)c1sc3ccccc3c12", "note": "[compound 7, 3-Methoxy[l]benzothieno[2,3-c]quinolin-6(5H)-one]", "values": [{"measurement": "inhibition at 1 µM", "setting": "[1]", "value": "> 70", "unit": "%"}, {"measurement": "% of inhibition TNKS-1", "setting": "[2]", "value": "> 70", "unit": "%"}]}
{"compound": "O=c1[nH]c2ccccc2c2c1sc1ccc(O)cc12", "note": "[compound 8, 10-Hydroxy[l]benzothieno[2,3-c]quinolin-6(5H)-one]", "values": [{"measurement": "inhibition at 1 µM", "setting": "[2]", "value": "≤ 90", "unit": "%"}]}
{"compound": "O=c1[nH]c2cc(O)ccc2c2c1sc1ccccc12", "note": "[compound 9, 3-Hydroxy[l]benzothieno[2,3-c]quinolin-6(5H)-one]", "values": [{"measurement": "inhibition at 1 µM", "setting": "[2]", "value": "≤ 100", "unit": "%"}]}
{"compound": "O=c1[nH]c(-c2ccccc2)cc2c1sc1ccccc12", "note": "[compound 16, 3-Phenyl[1]benzothieno[2,3-c]pyridin-1(2H)-one]", "values": [{"measurement": "inhibition at 1 µM", "setting": "[2]", "value": 84, "unit": "%"}]}
{"compound": "O=c1[nH]c(-c2ccccc2)nc2c3c(sc12)CCCC3", "note": "[compound 19, 2-Phenyl-6,7,8,9-tetrahydro-3H-benzo[4,5]thieno[3,2-d] pyrimidin-4-one]", "values": [{"measurement": "% of inhibition TNKS-1", "setting": "[2]", "value": "nearly inactive"}]}
{"compound": "Cc1ccc(-c2nc3c(sc4ccccc43)c(=O)[nH]2)cc1", "note": "[compound 22, 2-p-Tolyl-3H-benzo[4,5]thieno[3,2-d]pyrimidin-4-one]", "values": [{"measurement": "inhibition at 1 µM", "setting": "[2]", "value": 98, "unit": "%"}]}
{"compound": "CC(C)(C)c1ccc(-c2nc3c(sc4ccccc43)c(=O)[nH]2)cc1", "note": "[compound 23, 2-(4-tert-Butyl-phenyl)-3H-benzo[4,5]thieno[3,2-d] pyrimidin-4-one]", "values": [{"measurement": "TNKS-2 inhibition", "setting": "[1]; 10 μM", "value": "fully inhibited"}, {"measurement": "growth inhibition of Wnt-negative RKO cells", "setting": "[3]", "value": "marginal non-specific effects were only detected at concentrations higher than 10 μM"}, {"measurement": "inhibition of the other PARPs tested", "setting": "[4]", "value": "below 20%"}, {"measurement": "long-term growth inhibition of DLD-1 cells", "setting": "[5]", "value": "marked efficacy"}, {"measurement": "TCF reporter activity inhibition", "setting": "[6]", "value": "comparable fashion to the reference compounds 1 and IWR-1"}, {"measurement": "TNKS-1 inhibition", "setting": "[2]; 10 μM", "value": "fully inhibited"}]}
{"compound": "Olaparib [AZD 2281]", "values": [{"measurement": "% inhibition PARP-14", "setting": "[7]", "value": "less than 20%"}, {"measurement": "% of inhibition PARP-2", "setting": "[8]", "value": 100, "unit": "%"}]}
